The results in this text go back to patent publication US9878982B2, “Pyridine derivatives and anti-mycobacterial use thereof” (priority 2014, dated 2018).

Series [1] relates to Mycobacterium smegmatis strain ATCC19420. Put plainly: In vitro efficacy test using Mycobacterium smegmatis strain ATCC19420 (MIC). It is filed as cell-based. The conditions noted are these: CA-MHB + 0.02% Tween 80, 30° C., read after 72 hours; for MIC: Mycolicibacterium smegmatis, ATCC19420, 72 h.
For a further series, the system named is M. tuberculosis H37Rv. Put plainly: In vitro efficacy test using the H37Rv strain, Microplate Alamar Blue Assay (MABA) MIC. The format is cell-based, Mycobacterium tuberculosis. The conditions noted are these: for MIC: Mycobacterium tuberculosis, H37RV. In general terms: Resazurin is reduced to fluorescent resorufin, in cell work by metabolically active cells.

The next series has as its system M. tuberculosis H37R. Put plainly: microbe, parasite or virus in culture. It is filed as cell-based, Mycobacterium tuberculosis. Conditions: for MIC: Mycobacterium tuberculosis, H37R, read-out: M. tuberculosis H37R LORA (MIC).
The test system of a further series is Vero Cell. Put plainly: Vero cell cytotoxicity (IC50). It is filed as cell-based. Conditions: Chlorocebus sabaeus, Vero, African green monkey kidney cells.
A short description of series [2]: Hela cell cytotoxicity (CC50). Conditions: human, HeLa cells (human cervical cancer cells), CC50_Hela, half of the toxic concentration.
Where [3] appears, read: aerobic, 7H9 medium, Alamar Blue, read-out: M. tuberculosis H37Rv MABA (MIC).
Where [4] appears, read: wild-type H37Rv strain, two values per compound, read-out: MABA MIC vs. H37Rv.

Values after ≈ are worked out from the molar mass of the structure shown. Read-outs that look alike come from different tables or passages of the source.

One may read the IC50 as the point on the concentration scale where inhibition reaches its midpoint. Usually CC50 stands for the concentration at which the toxic effect on the cells reaches its halfway point. In the case of `COc1ncc(-c2ccc(Cl)cc2)cc1C(c1ccccc1)C(O)(CCN(C)C)c1cccc(Br)c1` (single isomer, unassigned) [Compound 388, 2-(3-bromophenyl)-1-(5-(4-chlorophenyl)-2-methoxypyridin-3-yl)-4-(dimethylamino)-1-phenylbutan-2-ol], the MIC in series [1] was 0.0156 µg/mL; in the series on M. tuberculosis H37Rv (setting [3]), 0.062 µg/mL; in the series on M. tuberculosis H37R, less than 0.125 µg/mL. This molecule gave an IC50 with Vero Cell greater than 32 µg/mL. Besides, the CC50 in series [2] came to 26.2 µg/mL (≈ 46.2 µM).
For `COc1ncc(-c2ccc(Cl)cc2)cc1C(c1ccccc1)C(O)(CCN(C)C)c1ccc(Br)cc1` (single isomer, unassigned) [Compound 390, 2-(4-bromophenyl)-1-(5-(4-chlorophenyl)-2-methoxypyridin-3-yl)-4-(dimethylamino)-1-phenylbutan-2-ol] the same measures were 0.0625 µg/mL, 0.087 µg/mL, less than 0.125 µg/mL, greater than 32 µg/mL and 24.1 µg/mL (≈ 42.7 µM).
For `COc1cccc(C(c2cc(-c3ccc(Cl)cc3)cnc2OC)C(O)(CCN(C)C)c2cc(Cl)cc(Cl)c2)c1OC` (single isomer, unassigned) [Compound 395, 1-(5-(4-chlorophenyl)-2-methoxypyridin-3-yl)-2-(3,5-dichlorophenyl)-1-(2,3-dimethoxyphenyl)-4-(dimethylamino)butan-2-ol], in that order: 0.039 µg/mL, 0.031 µg/mL, less than 0.125 µg/mL, greater than 32 µg/mL and greater than 64 µg/mL.
Consider `COc1cccc(C(c2cc(-c3ccc(Cl)cc3)cnc2OC)C(O)(CCN(C)C)c2cccc(Cl)c2)c1OC` (single isomer, unassigned) [Compound 399], for which the MIC in series [1] is no more than 0.0625 µg/mL. Also, the CC50 in series [2] is greater than 64 µg/mL.
With `COc1nc(OC)c(C(c2ccccc2)C(O)(CCN(C)C)c2cccc3ccccc23)cc1-c1ccc(Cl)cc1` (single isomer, unassigned) [Compound 401, 1-(5-(4-chlorophenyl)-2,6-dimethoxypyridin-3-yl)-4-(dimethylamino)-2-(naphthalen-1-yl)-1-phenylbutan-2-ol], the MIC in series [1] is 0.0312 µg/mL; in the series on M. tuberculosis H37Rv (setting [3]), 0.05 µg/mL; with M. tuberculosis H37R, 0.19 µg/mL (≈ 0.335 µM). Moreover, in the series on Vero Cell, the IC50 was greater than 32 µg/mL. The same molecule returned a CC50 in series [2] greater than 64 µg/mL.
`COc1ncc(-c2ccccc2)cc1C(c1ccccc1)C(O)(CCN(C)C)c1cccc2ccccc12` (centres unmarked) [Compound 9, 4-(dimethylamino)-1-(2-methoxy-5-phenylpyridin-3-yl)-2-(naphthalen-1-yl)-1-phenylbutan-2-ol]: the MIC in series [1] came to 0.0312 µg/mL; in the series with M. tuberculosis H37Rv (setting [3]), 1.08 µg/mL; in the series on M. tuberculosis H37Rv (setting [4]), 0.46 µM; in the series on M. tuberculosis H37R it was 0.72 µg/mL (≈ 1.43 µM). Moreover, the “MABA MIC vs. H37Rv” value with M. tuberculosis H37Rv (wild-type H37Rv strain, two values per compound) was 0.36 µM. This molecule also registered an IC50 with Vero Cell greater than 50 µg/mL. The same molecule had a CC50 in series [2] of 30.4 µg/mL (≈ 60.4 µM).
With `COc1ncc(-c2cccnc2)cc1C(c1ccccc1)C(O)(CCN(C)C)c1cccc2ccccc12` (centres unmarked) [Compound 19, 4-(dimethylamino)-1-(6-methoxy-[3,3′-bipyridin]-5-yl)-2-(naphthalen-1-yl)-1-phenylbutan-2-ol], the MIC in series [1] came to 0.5 µg/mL; in the series on M. tuberculosis H37Rv (setting [3]), 2.85 µg/mL; in the series with M. tuberculosis H37R, 3.11 µg/mL (≈ 6.17 µM). In the series on Vero Cell, this molecule showed an IC50 greater than 50 µg/mL. Besides, in series [2], it took 10.3 µg/mL (≈ 20.4 µM) to reach half-maximal cytotoxicity (CC50).
For `COc1ncc(-c2ccccc2)cc1C(c1ccccc1)C(O)(CCN(C)C)c1cccc(F)c1F` (centres unmarked) [Compound 31, 2-(2,3-difluorophenyl)-4-(dimethylamino)-1-(2-methoxy-5-phenylpyridin-3-yl)-1-phenylbutan-2-ol] the same measures were 0.25 µg/mL, 0.58 µg/mL, 0.46 µg/mL (≈ 0.942 µM), greater than 50 µg/mL and 28.1 µg/mL (≈ 57.5 µM).
For `COc1ncc(-c2ccccc2)cc1C(c1ccccc1)C(O)(CCN(C)C)c1cc(F)cc(F)c1` (centres unmarked) [Compound 35, 2-(3,5-difluorophenyl)-4-(dimethylamino)-1-(2-methoxy-5-phenylpyridin-3-yl)-1-phenylbutan-2-ol], in that order: no more than 0.0625 µg/mL, 0.73 µg/mL, 0.37 µg/mL (≈ 0.757 µM), greater than 50 µg/mL and 28.9 µg/mL (≈ 59 µM).
`COc1ncc(C2CCCC2)cc1C(c1ccccc1)C(O)(CCN(C)C)c1cccc2ccccc12` (centres unmarked) [Compound 63]: the “M. smegmatis ATCC19420 MIC” value in series [1] was less than 0.0625 µg/mL. Further, the “M. tuberculosis H37Rv MABA (MIC)” value with M. tuberculosis H37Rv (aerobic, 7H9 medium, Alamar Blue) came out at 0.75 µg/mL. In the series on M. tuberculosis H37R, the “M. tuberculosis H37R LORA (MIC)” value is 1.41 µg/mL. In addition, the IC50 in the series on Vero Cell was greater than 50 µg/mL. The molecule further had a cytotoxic concentration (CC50) in series [2] of 52.9 µg/mL (≈ 107 µM).
As to `COc1ncc(-c2ccccc2)cc1C(c1ccc(F)cc1)C(O)(CCN(C)C)c1ccccc1` (centres unmarked) [Compound 70, 4-(dimethylamino)-1-(4-fluorophenyl)-1-(2-methoxy-5-phenylpyridin-3-yl)-2-phenylbutan-2-ol], the figures for the MIC (in series [1]; with M. tuberculosis H37Rv (setting [3]); in the series on M. tuberculosis H37R) were 0.125 µg/mL, 1.49 µg/mL and 1.33 µg/mL (≈ 2.83 µM), respectively. Besides, in the series on Vero Cell, the IC50 was greater than 50 µg/mL. The molecule also had a half-maximal cytotoxic concentration (CC50) in series [2] of 13.7 µg/mL (≈ 29.1 µM).
Turning to `COc1ncc(C2CCOCC2)cc1C(c1ccccc1)C(O)(CCN(C)C)c1cccc2ccccc12` (centres unmarked) [Compound 75, 4-(dimethylamino)-1-(2-methoxy-5-(tetrahydro-2H-pyran-4-yl)pyridin-3-yl)-2-(naphthalen-1-yl)-1-phenylbutan-2-ol], the MIC was found to be 0.125 µg/mL in series [1], 1.32 µg/mL in the series on M. tuberculosis H37Rv (setting [3]) and 2.73 µg/mL (≈ 5.35 µM) in the series with M. tuberculosis H37R. The IC50 in the series with Vero Cell is greater than 50 µg/mL. This molecule gave a 50% cytotoxic concentration (CC50) in series [2] of 22.5 µg/mL (≈ 44 µM).
Take `COc1ncc(-c2cccc(F)c2)cc1C(c1ccccc1)C(O)(CCN(C)C)c1cccc2ccccc12` (centres unmarked) [Compound 87, 4-(dimethylamino)-1-(5-(3-fluorophenyl)-2-methoxypyridin-3-yl)-2-(naphthalen-1-yl)-1-phenylbutan-2-ol]: the MIC in series [1] is no more than 0.0625 µg/mL; with M. tuberculosis H37Rv (setting [3]), 0.48 µg/mL; with M. tuberculosis H37R, 1.18 µg/mL (≈ 2.27 µM). Besides, in the series with Vero Cell, the IC50 is greater than 50 µg/mL. The same molecule registered a CC50 in series [2] of 62.8 µg/mL (≈ 121 µM).
For the molecule `COc1ncc(-c2ccc(F)cc2)cc1C(c1ccccc1)C(O)(CCN(C)C)c1cccc2ccccc12` (centres unmarked) [Compound 91, 4-(dimethylamino)-1-(5-(4-fluorophenyl)-2-methoxypyridin-3-yl)-2-(naphthalen-1-yl)-1-phenylbutan-2-ol], the MIC in series [1] came out at 0.0312 µg/mL; with M. tuberculosis H37Rv (setting [3]) it was 0.34 µg/mL; with M. tuberculosis H37R it was 0.71 µg/mL (≈ 1.36 µM). Also, the half-inhibitory concentration (IC50) in the series with Vero Cell is greater than 50 µg/mL. The molecule also gave a CC50 in series [2] greater than 64 µg/mL.
For `COc1ncc(-c2ccccc2Cl)cc1C(c1ccccc1)C(O)(CCN(C)C)c1cccc2ccccc12` (centres unmarked) [Compound 107], in that order: 0.5 µg/mL, 1.17 µg/mL, 3.03 µg/mL (≈ 5.64 µM), greater than 50 µg/mL and greater than 64 µg/mL.
With `COc1ncc(-c2ccc(Cl)cc2)cc1C(c1ccccc1)C(O)(CCN(C)C)c1cccc2ccccc12` (centres unmarked) [Compound 115, 1-(5-(4-chlorophenyl)-2-methoxypyridin-3-yl)-4-(dimethylamino)-2-(naphthalen-1-yl)-1-phenylbutan-2-ol], the MIC amounted to 0.0156 µg/mL in series [1], 0.08 µg/mL with M. tuberculosis H37Rv (setting [3]), 0.06 µM in the series on M. tuberculosis H37Rv (setting [4]) and 0.56 µg/mL (≈ 1.04 µM) in the series with M. tuberculosis H37R. For the same molecule, the “inhibitory activity against M. tuberculosis H37Rv, aerobic (MABA) (in words)” value in the series on M. tuberculosis H37Rv is “comparable to that of the marketed anti-TB drug, Bedaquiline”. This molecule had an IC50 in the series with Vero Cell greater than 50 µg/mL. For the same molecule, the CC50 in series [2] was greater than 64 µg/mL.
Turning to `COc1ncc(-c2ccccc2Br)cc1C(c1ccccc1)C(O)(CCN(C)C)c1cccc2ccccc12` (centres unmarked) [Compound 125, 1-(5-(2-bromophenyl)-2-methoxypyridin-3-yl)-4-(dimethylamino)-2-(naphthalen-1-yl)-1-phenylbutan-2-ol], the values for the MIC (in series [1]; with M. tuberculosis H37Rv (setting [3]); in the series on M. tuberculosis H37R) were 0.5 µg/mL, 1.84 µg/mL and 1.89 µg/mL (≈ 3.25 µM), respectively. The IC50 in the series on Vero Cell is greater than 32 µg/mL. Also, the cytotoxic concentration (CC50) in series [2] was greater than 64 µg/mL.
For `COc1ncc(-c2cccc(Br)c2)cc1C(c1ccccc1)C(O)(CCN(C)C)c1cccc2ccccc12` (centres unmarked) [Compound 129, 1-(5-(3-bromophenyl)-2-methoxypyridin-3-yl)-4-(dimethylamino)-2-(naphthalen-1-yl)-1-phenylbutan-2-ol] the same measures were 0.5 µg/mL, 1.88 µg/mL, 2.57 µg/mL (≈ 4.42 µM), greater than 32 µg/mL and greater than 64 µg/mL.
Regarding `COc1ncc(-c2ccc(Br)cc2)cc1C(c1ccccc1)C(O)(CCN(C)C)c1cc(F)ccc1F` (centres unmarked) [Compound 308, 1-(5-(4-bromophenyl)-2-methoxypyridin-3-yl)-2-(2,5-difluorophenyl)-4-(dimethylamino)-1-phenylbutan-2-ol], the MIC in the series with M. tuberculosis H37Rv (setting [3]) turned out to be 0.09 µg/mL; in the series on M. tuberculosis H37R, 0.19 µg/mL (≈ 0.335 µM). Moreover, the IC50 in the series on Vero Cell is greater than 32 µg/mL. This molecule gave a CC50 in series [2] greater than 64 µg/mL.
For `COc1ncc(-c2ccc(Cl)cc2)cc1C(c1ccc(Cl)cc1)C(O)(CCN(C)C)c1cccc2ccccc12` (centres unmarked) [Compound 329], in that order: 0.08 µg/mL, 2.02 µg/mL (≈ 3.53 µM), greater than 32 µg/mL and greater than 64 µg/mL.
Regarding `COc1cc(-c2cnc(OC)c(C(c3ccccc3)C(O)(CCN(C)C)c3cccc4ccccc34)c2)ccc1Cl` (centres unmarked) [Compound 379], the MIC in series [1] came to 0.125 µg/mL. The CC50 in series [2] amounted to 61.8 µg/mL (≈ 109 µM).
